Key:
Interstitial collagenase = molecular target: T1, Interstitial collagenase (Homo sapiens, UniProt P03956); experiment: Inhibition of collagenase-1 (MMP-1).
T1 sequence (P03956 whole entry): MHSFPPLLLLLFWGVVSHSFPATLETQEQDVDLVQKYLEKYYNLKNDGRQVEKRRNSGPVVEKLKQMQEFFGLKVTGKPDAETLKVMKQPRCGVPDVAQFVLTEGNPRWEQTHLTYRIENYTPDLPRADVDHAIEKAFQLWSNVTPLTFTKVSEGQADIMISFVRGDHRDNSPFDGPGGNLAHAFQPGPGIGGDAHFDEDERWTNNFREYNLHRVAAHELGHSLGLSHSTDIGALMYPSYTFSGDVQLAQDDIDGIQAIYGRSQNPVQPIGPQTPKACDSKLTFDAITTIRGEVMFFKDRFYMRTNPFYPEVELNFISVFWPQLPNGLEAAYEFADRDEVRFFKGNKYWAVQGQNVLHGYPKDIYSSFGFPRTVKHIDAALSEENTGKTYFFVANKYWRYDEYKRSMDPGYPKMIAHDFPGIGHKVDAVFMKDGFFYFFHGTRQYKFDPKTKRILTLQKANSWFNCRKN

[1] = molecular target: T2, 72 kDa type IV collagenase (Homo sapiens, UniProt P08253); experiment: Inhibition of gelatinase-A (MMP-2) at a concentration of 1 uM
Target sequence in this assay (P08253 110-660 limits assumed): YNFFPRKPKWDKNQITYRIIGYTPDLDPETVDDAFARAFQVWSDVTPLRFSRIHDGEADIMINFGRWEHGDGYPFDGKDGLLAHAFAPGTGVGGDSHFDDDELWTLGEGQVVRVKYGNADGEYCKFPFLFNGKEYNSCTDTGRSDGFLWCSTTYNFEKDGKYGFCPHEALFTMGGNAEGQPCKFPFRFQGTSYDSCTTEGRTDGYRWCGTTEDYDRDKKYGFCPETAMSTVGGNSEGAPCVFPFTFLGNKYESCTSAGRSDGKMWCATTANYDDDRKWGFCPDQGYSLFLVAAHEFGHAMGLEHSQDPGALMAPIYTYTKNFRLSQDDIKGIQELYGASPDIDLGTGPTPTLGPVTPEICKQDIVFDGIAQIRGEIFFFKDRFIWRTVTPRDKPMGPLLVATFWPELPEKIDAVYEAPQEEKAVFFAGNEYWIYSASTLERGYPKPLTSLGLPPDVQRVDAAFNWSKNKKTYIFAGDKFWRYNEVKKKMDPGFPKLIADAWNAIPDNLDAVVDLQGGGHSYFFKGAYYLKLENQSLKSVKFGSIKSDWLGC

Stromelysin-1 [2] = molecular target: T3, Stromelysin-1 (Homo sapiens, UniProt P08254); experiment: Inhibition of stromelysin-1 (MMP-3).
[3] = molecular target: T2, 72 kDa type IV collagenase; experiment: Inhibition of gelatinase-A (MMP-2).
Target sequence in this assay (P08253 whole entry): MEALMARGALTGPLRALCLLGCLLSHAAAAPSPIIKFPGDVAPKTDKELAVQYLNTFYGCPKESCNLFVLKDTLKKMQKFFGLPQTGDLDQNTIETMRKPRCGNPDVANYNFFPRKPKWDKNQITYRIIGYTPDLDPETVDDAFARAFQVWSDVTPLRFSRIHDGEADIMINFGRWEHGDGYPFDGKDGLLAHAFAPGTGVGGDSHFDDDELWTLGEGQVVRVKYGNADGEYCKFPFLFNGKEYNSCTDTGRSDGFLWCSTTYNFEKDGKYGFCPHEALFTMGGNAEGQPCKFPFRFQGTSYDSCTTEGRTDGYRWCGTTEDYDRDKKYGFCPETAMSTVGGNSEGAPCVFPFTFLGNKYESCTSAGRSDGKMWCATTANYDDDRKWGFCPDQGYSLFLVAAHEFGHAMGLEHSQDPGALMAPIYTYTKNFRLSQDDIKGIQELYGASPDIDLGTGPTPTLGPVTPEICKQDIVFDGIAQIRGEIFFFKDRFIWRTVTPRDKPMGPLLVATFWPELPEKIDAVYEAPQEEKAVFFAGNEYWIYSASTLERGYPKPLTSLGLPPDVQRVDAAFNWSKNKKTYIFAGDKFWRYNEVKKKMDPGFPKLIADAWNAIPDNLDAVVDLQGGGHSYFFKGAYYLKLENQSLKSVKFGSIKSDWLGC

Stromelysin-1 [4] = molecular target: T3, Stromelysin-1; experiment: Inhibition of stromelysin-1 (MMP-3)
[5] = molecular target: T2, 72 kDa type IV collagenase; experiment: Inhibition of gelatinase-A (MMP-2)
Target sequence in this assay (P08253 whole entry): as above

T3 sequence (P08254 whole entry): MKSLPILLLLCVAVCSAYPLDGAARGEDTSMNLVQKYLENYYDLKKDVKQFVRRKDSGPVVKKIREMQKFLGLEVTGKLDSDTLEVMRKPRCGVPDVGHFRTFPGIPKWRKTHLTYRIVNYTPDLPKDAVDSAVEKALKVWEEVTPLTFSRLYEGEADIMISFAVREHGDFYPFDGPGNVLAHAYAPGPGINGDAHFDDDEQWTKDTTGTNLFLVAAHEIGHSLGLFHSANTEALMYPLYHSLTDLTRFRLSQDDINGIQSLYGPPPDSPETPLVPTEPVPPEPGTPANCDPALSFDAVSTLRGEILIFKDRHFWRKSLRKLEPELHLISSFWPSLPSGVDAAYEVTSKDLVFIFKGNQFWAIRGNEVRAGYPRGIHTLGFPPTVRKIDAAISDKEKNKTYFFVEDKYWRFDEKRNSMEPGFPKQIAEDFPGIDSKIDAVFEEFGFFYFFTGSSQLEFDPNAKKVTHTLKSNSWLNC

SMILES	Ki (Interstitial collagenase)	inhibition [1]	Ki (Stromelysin-1 [2])	Ki [3]	other results
CC(C)C[C@H](NC(=O)[C@H](CCc1ccccc1)CP(=O)(O)CCCCNC(=O)OCc1ccccc1)C(=O)Nc1ccccc1	≥ 10 µM	86%	63 nM	–	–
CC(C)C[C@H](NC(=O)[C@H](CCc1ccccc1)CP(=O)(O)CCCCNC(=O)[C@H]1CCCN1C(=O)c1ccccc1)C(=O)Nc1ccccc1	≥ 10 µM	89%	24 nM	–	–
CC(C)C[C@H](NP(=O)(O)CCCCN1C(=O)c2ccccc2C1=O)C(=O)N[C@@H](Cc1c[nH]c2ccccc12)C(=O)NCc1ccccc1	–	–	–	–	IC50 (Interstitial collagenase): 0.05 µM; IC50 (Stromelysin-1 [2]): 260 nM
CC(=O)N1CCC[C@H]1C(=O)NCCCCP(=O)(O)C[C@@H](CCc1ccccc1)C(=O)N[C@@H](CC(C)C)C(=O)Nc1ccccc1	≥ 10 µM	–	62 nM	6.1 nM	–
CC(C)C[C@H](NC(=O)[C@H](CCc1ccccc1)CP(=O)(O)CCCCNC(=O)Oc1ccccc1)C(=O)Nc1ccccc1	≥ 10 µM	73%	56 nM	–	–
CC(C)C[C@H](NC(=O)[C@H](CCc1ccccc1)CP(=O)(O)CNC(=O)CN1C(=O)c2ccccc2C1=O)C(=O)Nc1ccccc1	–	–	410 nM	–	–
CC(C)C[C@H](NC(=O)[C@H](CCc1ccccc1)CP(=O)(O)CCCCN1C(=O)c2ccccc2C1=O)C(=O)Nc1ccccc1	≥ 10 µM	–	–	20 nM	–
CC(C)C[C@H](NC(=O)[C@H](CCc1ccccc1)CP(=O)(O)CCCCNC(=O)Cc1ccccc1)C(=O)Nc1ccccc1	≥ 10 µM	–	30 nM	130 nM	–
CC(C)C[C@H](NC(=O)[C@H](CCc1ccccc1)CP(=O)(O)CCCCNC(=O)[C@@H]1CCCN1C(=O)c1ccccc1)C(=O)Nc1ccccc1	≥ 10 µM	–	13 nM	2.1 nM	–
CC(C)C[C@H](NC(=O)[C@H](Cc1ccccc1)NP(=O)(O)CCCCN1C(=O)c2ccccc2C1=O)C(=O)NCc1ccccc1	–	–	–	–	IC50 (Interstitial collagenase): 30 µM; IC50 (Stromelysin-1 [2]): 2800 nM
COc1ccccc1CC[C@H](CP(=O)(O)CCCCN1C(=O)c2ccccc2C1=O)C(=O)N[C@@H](CC(C)C)C(=O)Nc1ccccc1	≥ 10 µM	–	440 nM	4400 nM	–
CC(C)C[C@H](NC(=O)[C@H](CCc1ccccc1)CP(=O)(O)C/C=C/CN1C(=O)c2ccccc2C1=O)C(=O)Nc1ccccc1	≥ 10 µM	–	4.5 nM	4.8 nM	–
CC(C)C[C@H](NC(=O)[C@H](CCc1ccccc1)CP(=O)(O)CCCCNC(=O)NCc1ccccc1)C(=O)Nc1ccccc1	≥ 10 µM	96%	50 nM	–	–
CC(C)C[C@H](NC(=O)[C@H](CCc1ccccc1)CP(=O)(O)CCCCNC(=O)Nc1ccccc1)C(=O)Nc1ccccc1	≥ 10 µM	85%	70 nM	–	–
CC(C)C[C@H](NC(=O)[C@H](CCc1ccccc1)CP(=O)(O)CCCCN1Cc2ccccc2C1=O)C(=O)Nc1ccccc1	≥ 10 µM	–	5.5 nM	7.3 nM	–
CC(C)C[C@H](NC(=O)[C@H](CCc1ccccc1)CP(=O)(O)CCC(=O)NCCCc1ccccc1)C(=O)Nc1ccccc1	≥ 10 µM	46%	670 nM	–	–
COc1ccc(CC[C@H](CP(=O)(O)CCCCN2C(=O)c3ccccc3C2=O)C(=O)N[C@@H](CC(C)C)C(=O)Nc2ccccc2)cc1	≥ 10 µM	–	2.3 nM	12 nM	–
CC(C)C[C@H](NC(=O)[C@H](Cc1ccccc1)CP(=O)(O)CCCCN1C(=O)c2ccccc2C1=O)C(=O)NCc1ccccc1	–	–	–	–	IC50 (Interstitial collagenase): 4.1 µM; IC50 (Stromelysin-1 [2]): 430 nM
COc1cccc(CC[C@H](CP(=O)(O)CCCCN2C(=O)c3ccccc3C2=O)C(=O)N[C@@H](CC(C)C)C(=O)Nc2ccccc2)c1	≥ 10 µM	–	2.5 nM	2.1 nM	–
CC(C)C[C@H](NC(=O)[C@H](Cc1ccccc1)OP(=O)(O)CCCCN1C(=O)c2ccccc2C1=O)C(=O)NCc1ccccc1	–	–	–	–	IC50 (Interstitial collagenase): > 32 µM; IC50 (Stromelysin-1 [2]): > 200000 nM

Continued, in another order:

Ki (Interstitial collagenase)	inhibition [1]	Ki (Stromelysin-1 [2])	Ki [3]	SMILES	other results
≥ 10 µM	60%	470 nM	–	CC(C)C[C@H](NC(=O)[C@H](CCc1ccccc1)CP(=O)(O)CCC(=O)Nc1ccccc1)C(=O)Nc1ccccc1	–
≥ 10 µM	–	5.7 nM	26 nM	CC(C)C[C@H](NC(=O)[C@H](CCc1ccccc1)CP(=O)(O)CCCCNC(=O)c1ccccc1)C(=O)Nc1ccccc1	–
≥ 10 µM	–	–	–	CC(C)C[C@H](NC(=O)[C@H](CCc1ccccc1)CP(=O)(O)CCC(=O)NCc1ccccc1)C(=O)Nc1ccccc1	Ki (Stromelysin-1 [4]): 540 nM
≥ 10 µM	94%	16 nM	–	CCOC(=O)NCCCCP(=O)(O)C[C@@H](CCc1ccccc1)C(=O)N[C@@H](CC(C)C)C(=O)Nc1ccccc1	–
≥ 10 µM	–	1500 nM	570 nM	CC(C)C[C@H](NC(=O)[C@H](CCc1ccccc1)CP(C)(=O)O)C(=O)Nc1ccccc1	–
≥ 10 µM	–	17 nM	–	CCNC(=O)NCCCCP(=O)(O)C[C@@H](CCc1ccccc1)C(=O)N[C@@H](CC(C)C)C(=O)Nc1ccccc1	Ki [5]: 19 nM
≥ 10 µM	90%	54 nM	–	COC(=O)NCCCCP(=O)(O)C[C@@H](CCc1ccccc1)C(=O)N[C@@H](CC(C)C)C(=O)Nc1ccccc1	–
≥ 10 µM	92%	26 nM	–	CC(=O)N1CCC[C@@H]1C(=O)NCCCCP(=O)(O)C[C@@H](CCc1ccccc1)C(=O)N[C@@H](CC(C)C)C(=O)Nc1ccccc1	–
≥ 10 µM	87%	130 nM	–	CNC(=O)NCCCCP(=O)(O)C[C@@H](CCc1ccccc1)C(=O)N[C@@H](CC(C)C)C(=O)Nc1ccccc1	–
≥ 10 µM	–	520 nM	1300 nM	COC(=O)CCP(=O)(O)C[C@@H](CCc1ccccc1)C(=O)N[C@@H](CC(C)C)C(=O)Nc1ccccc1	–
≥ 10 µM	13%	3700 nM	–	CC(C)C[C@H](NC(=O)[C@H](CCc1ccccc1)CP(=O)(O)CCCCN)C(=O)Nc1ccccc1	–
≥ 10 µM	58%	170 nM	–	CC(C)C[C@H](NC(=O)[C@H](CCc1ccccc1)CP(=O)(O)CCC(=O)NCCc1ccccc1)C(=O)Nc1ccccc1	–

— ChEMBL document CHEMBL1128968, “Phosphinic acid inhibitors of matrix metalloproteinases” (Bioorg Med Chem Lett, 1996)
